From the supplement of paper PMC10307832

What was measured:
Assay in all cases: relative viability (nuclei count vs DMSO), 5 days (fraction); higher = more cells survive
Linsitinib + OSI-027 = compound: C[C@]1(O)C[C@@H](c2nc(-c3ccc4ccc(-c5ccccc5)nc4c3)c3c(N)nccn32)C1 [Linsitinib] + COc1cccc2cc(-c3nc([C@H]4CC[C@H](C(=O)O)CC4)n4ncnc(N)c34)[nH]c12 [OSI-027] (partner 0.5 µM)
Outline: (§1)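 For relative viability, nuclei counts in treated wells were divided by those in vehicle wells. Lung cancer cell lines had been pin-tool dosed in 1536-well plates the day after seeding and cultured for 5 days, then fixed and stained in one step (final 0.05% Triton X-100, 1% formaldehyde, 1 ug/ml Hoechst) and imaged at 4×. Doses were one drug alone or a fixed anchor-drug dose plus five library-drug doses (not always all listed) in √10 steps, and values are duplicate-plate medians.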

Linsitinib + Trametinib = compound: C[C@]1(O)C[C@@H](c2nc(-c3ccc4ccc(-c5ccccc5)nc4c3)c3c(N)nccn32)C1 [Linsitinib] + CC(=O)Nc1cccc(-n2c(=O)n(C3CC3)c(=O)c3c(Nc4ccc(I)cc4F)n(C)c(=O)c(C)c32)c1 [Trametinib] (partner 0.02 µM)
Outline: as §1

Ispinesib + Foretinib = compound: Cc1ccc(C(=O)N(CCCN)[C@@H](c2nc3cc(Cl)ccc3c(=O)n2Cc2ccccc2)C(C)C)cc1 [Ispinesib] + COc1cc2c(Oc3ccc(NC(=O)C4(C(=O)Nc5ccc(F)cc5)CC4)cc3F)ccnc2cc1OCCCN1CCOCC1 [Foretinib] (partner 0.25 µM)
Outline: as §1

Ispinesib + Bortezomib = compound: Cc1ccc(C(=O)N(CCCN)[C@@H](c2nc3cc(Cl)ccc3c(=O)n2Cc2ccccc2)C(C)C)cc1 [Ispinesib] + CC(C)C[C@H](NC(=O)[C@H](Cc1ccccc1)NC(=O)c1cnccn1)B(O)O [Bortezomib] (partner 0.002 µM)
Outline: as §1

Cell Line	relative viability (Linsitinib + OSI-027; first compound 0.01 µM)	relative viability (Linsitinib + OSI-027; first compound 0.03162 µM)	relative viability (Linsitinib + OSI-027; first compound 0.1 µM)	relative viability (Linsitinib + OSI-027; first compound 0.3162 µM)	relative viability (Linsitinib + OSI-027; first compound 1 µM)	relative viability (Linsitinib + Trametinib; first compound 0.01 µM)	relative viability (Linsitinib + Trametinib; first compound 0.03162 µM)	relative viability (Linsitinib + Trametinib; first compound 0.1 µM)	relative viability (Linsitinib + Trametinib; first compound 0.3162 µM)	relative viability (Linsitinib + Trametinib; first compound 1 µM)	relative viability (Ispinesib + Foretinib; first compound 0.001 µM)	relative viability (Ispinesib + Foretinib; first compound 0.003162 µM)	relative viability (Ispinesib + Foretinib; first compound 0.01 µM)	relative viability (Ispinesib + Foretinib; first compound 0.03162 µM)	relative viability (Ispinesib + Foretinib; first compound 0.1 µM)	relative viability (Ispinesib + Bortezomib; first compound 0.001 µM)	relative viability (Ispinesib + Bortezomib; first compound 0.003162 µM)	relative viability (Ispinesib + Bortezomib; first compound 0.01 µM)	relative viability (Ispinesib + Bortezomib; first compound 0.03162 µM)	relative viability (Ispinesib + Bortezomib; first compound 0.1 µM)
COR-L 105	0.64	0.578	0.603	0.596	0.381	0.427	0.448	0.441	0.412	0.389	1.46	1.01	1.03	0.468	0.345	0.836	0.664	0.325	0.311	0.303
NCI-H1944	0.427	0.474	0.393	0.315	0.217	0.395	0.465	0.381	0.356	0.346	0.797	0.908	0.9	0.627	0.677	–	–	–	–	–
NCI-H522	0.729	0.798	0.695	–	0.574	0.918	0.784	0.714	0.613	0.582	–	–	–	–	–	–	–	–	–	–
NCI-H1623	0.408	0.432	0.398	–	0.285	–	–	–	–	–	0.929	1.03	0.887	0.823	0.62	–	–	–	–	–
SK-MES-1	0.541	0.417	0.603	0.458	0.332	0.516	0.484	0.556	0.503	0.521	1.01	1.02	0.993	0.928	0.256	–	–	–	–	–
HCC-44	0.503	0.41	0.465	0.181	0.232	0.94	1.04	1.01	0.716	0.923	–	–	–	–	–	0.911	1	1.1	0.719	0.131
LK-2	0.243	0.242	0.154	0.167	0.168	0.892	0.626	0.599	0.39	0.643	1.25	1.21	1.43	1.2	0.617	–	–	–	–	–
NCI-H358	0.781	0.928	0.68	0.421	0.246	0.15	0.148	0.13	0.118	0.0976	0.694	0.695	0.702	0.28	0.123	–	–	–	–	–
ABC-1	0.502	0.447	0.504	0.38	0.217	–	–	–	–	–	1.37	1.35	1.11	0.507	0.382	0.269	0.317	0.302	0.197	0.273
EBC-1	–	–	–	–	–	–	–	–	–	–	0.111	0.101	0.109	0.0927	0.0893	0.663	0.626	0.476	0.207	0.263
NCI-H1703	–	–	–	–	–	–	–	–	–	–	0.331	0.372	0.346	0.16	0.157	0.28	0.298	0.0844	0.0907	0.106
NCI-H1395	0.571	0.637	0.612	0.622	0.545	1	–	1.05	0.961	1.03	1.06	0.998	1.03	0.866	0.356	–	–	–	–	–
NCI-H1563	0.695	0.786	0.714	0.87	0.63	–	–	–	–	–	0.895	0.879	0.984	0.845	0.798	0.903	0.815	0.929	0.687	0.669
NCI-H1299	–	–	–	–	–	–	–	–	–	–	1.14	1.13	1.14	1.09	0.584	1.02	1.06	1.07	1.01	0.671
NCI-H2170	0.752	0.756	0.708	0.417	0.638	0.948	0.906	0.849	–	0.89	0.997	1.03	0.96	0.806	0.359	–	–	–	–	–
A549	–	–	–	–	–	–	–	–	–	–	1.13	1.19	1.2	0.757	0.0545	–	–	–	–	–
NCI-H2342	0.521	0.608	0.608	0.53	0.551	0.788	0.886	0.791	0.777	0.729	1.16	1	1	1.09	0.793	–	–	–	–	–
SW 900	0.565	0.593	0.481	0.397	0.352	0.741	0.986	0.762	0.72	0.674	0.813	0.76	0.927	0.854	0.204	–	–	–	–	–
NCI-H1648	0.26	0.265	0.264	–	0.245	0.517	0.482	0.53	0.388	0.385	–	–	–	–	–	–	–	–	–	–
Calu-6	–	–	–	–	–	–	–	–	–	–	0.981	0.887	0.854	0.39	0.125	0.9	0.725	0.24	0.137	0.202
